Results as given in EP0007995A1, “Chemotherapeutic preparations and their manufacture” (F. HOFFMANN-LA ROCHE & CO. Aktiengesellschaft, priority 1978, dated 1980).

Experiments:
[1] = test system: Streptococcus pyogenes β15; experiment: In vivo activity in infected mouse; conditions: po; Maus, p.o., gegen Streptococcus pyogenes β15; read-out: CD50 p.o.
E. coli 1346 = experiment: In vivo activity in infected mouse; conditions: Escherichia coli, po; Maus, p.o., gegen E. coli 1346; read-out: CD50 p.o.
[2] = test system: Pseudomonas aeruginosa BA; experiment: In vivo activity in infected mouse; conditions: po; Maus, p.o., gegen Pseudomonas aeruginosa BA; read-out: CD50 p.o.
Salmonella typhimurium = experiment: In vivo activity in infected mouse; conditions: Salmonella enterica, po; Maus, p.o., gegen Salmonella typhimurium; read-out: CD50 p.o.
Proteus mirabilis = experiment: In vivo activity in infected mouse; conditions: po; Maus, p.o., gegen Proteus mirabilis; read-out: CD50 p.o.
Acute toxicity = conditions: mouse, in vivo
Water solubility = assay type: physicochemical
Protocol: Wie gefunden wurde, lassen sich mit Fluoramphenicol wässrige Lösungen in Konzentrationen bis zu 0,5 g/10 ml herstellen. Solche Lösungen stellen eine wertvolle parenterale Applikationsform, insbesondere für die intravenöse Injektion und -Infusion dar. Dank seiner guten Wasserlöslichkeit eignet sich Fluoramphenicol auch für die Herstellung von ophthalmologischen Präparaten mit besonders guter Verträglichkeit, insbesondere für die Herstellung von Augentropfen.

menschlichen Lymphozyten = conditions: human
[3] = in vivo
[4] = J. Pharm. Pharmacol. 3 [1951], 143; cited from earlier work
in vivo = conditions: mouse

Row | Compound | ED50 [1] | ED50 (E. coli 1346) | ED50 [2] | ED50 (Salmonella typhimurium) | ED50 (Proteus mirabilis) | LD50 (Acute toxicity; ip) | LD50 (Acute toxicity; po) | wässrige Lösungen in Konzentrationen (Water solubility; aqueous solution) | Wasserlöslichkeit (Water solubility; result in words) | Cytotoxizität gegenüber menschlichen Lymphozyten, mal weniger toxisch als Chloramphenicol (menschlichen Lymphozyten) | metabolic stability (concluded from urine recovery) [3] | Serumkonzentrationen ([3]; po) | Urinkonzentrationen, mal höher als Chloramphenicol ([3]; po) | mal langsamer ausgeschieden als Chloramphenicol ([3]; po) | totale Urin-recovery an aktivem Fluoramphenicol, mal höher als an aktivem Chloramphenicol ([3]; po) | biological activity [4] | Cytotoxizität gegenüber KB-Zellen, mal weniger toxisch als Chloramphenicol (KB-Zellen) | LD50 (in vivo; ip) | LD50 (in vivo; po)
1 | O=C(N[C@H](CO)[C@H](O)c1ccc([N+](=O)[O-])cc1)C(Cl)Cl [Chloramphenicol, reference compound] | 22 mg/kg | 6.6 mg/kg | 93 mg/kg | 18 mg/kg | 5.8 mg/kg | 1000 to 1500 mg/kg | 2000 to 3000 mg/kg | – | – | – | – | – | – | – | – | – | – | – | –
2 | O=C(N[C@H](CO)[C@H](O)c1ccc([N+](=O)[O-])cc1)C(F)F [Fluoramphenicol, D-threo-1-(p-Nitrophenyl)-2-difluor-acetamino-l,3-propandiol] | 11 mg/kg | 6.6 mg/kg | 33 mg/kg | 19 mg/kg | 5.2 mg/kg | – | – | ≤ 0,5 g/10 ml | unerwartet hohe Wasserlöslichkeit | ~3 mal | metabolisch beständig | höhere Serumkonzentrationen als Chloramphenicol | ca. lO | 2-3 mal | ca. lO | biologisch unwirksam | 3-5 mal | 2000 to 3000 mg/kg | 3000 to 4000 mg/kg
